Measurements from PMC6429087, “Identification of Leishmania major UDP-Sugar Pyrophosphorylase Inhibitors Using Biosensor-Based Small Molecule Fragment Library Screening” (Molecules, 2019).
Read-outs that look alike come from different tables or passages of the source.

Tests used:
LmUSP [1] = target: T1, LmUSP (Leishmania major, UniProt D3G6S4); test: Bio-layer interferometry (BLI) binding to biotinylated LmUSP on Super Streptavidin biosensors; conditions: for Primary Binding Response: BLI primary screen, fragment 200 µM, 200 µM UTP in running buffer
Method: A vector containing the His(6)-biotin acceptor peptide (BAP) tag was kindly provided by Prof. Mike Ferguson from the University of Dundee. The BAP tag was inserted in the XbaI and NdeI restrictions site of the previously described pET22b-LmUSP [21]. The plasmid with insert was then transformed into the E. coli BL21(DE3) expression strain, and LmUSP was expressed and purified, as described previously. Exactly 2 mg of TEV protease was added to cleave off the His tag. The protein was dialyzed in 3 × 1 L Buffer C (50 mM TRIS pH 8.0, 150 mM NaCl, 10 mM MgCl2). A concentration of 100 µM D-Biotin, 500 µM ATP, and […] BirA enzyme were added to the protein and incubated for 18 hr for biotinylation. The sample was concentrated to 11 mL, using a Vivaspin 20 30 kDa PES centrifugal concentrator (Sartorious, Stonehouse, United Kingdom). The protein was loaded onto a Superdex 200 XK26/60 equilibrated with Buffer C on the AKTA Pure at 4 °C. The eluted monomeric protein was then concentrated to 0.98 mg/mL using a Vivaspin 20 30 kDa PES centrifugal concentrator, and used for loading onto super streptavidin (SSA) biosensors (Fortebio, Shanghai, China, Part No. 18-5057, Lot No. 1612162).
The loading response to SSA biosensors was measured to find the optimal protein concentration to be used for the screen. Briefly, biosensor tips were hydrated in assay buffer (50 mM Tris pH 8.0, 150 mM NaCl, 10 mM MgCl2) for a minimum of 5 min before being sequentially transferred to assay wells containing 1) assay buffer (60 s) to establish the baseline, 2) protein at 12.5, 25, or 50 µg/mL (900 s) to measure protein loading, and 3) assay buffer to assess the reversibility of protein binding to the sensor.
For fragment screening, 16 SSA biosensors were prepared by loading LmUSP (12.5 µg/mL) for 900 s; free streptavidin sites were then blocked with biocytin (10 µg/mL) for 120 s, and finally washed in buffer W (50 mM Tris pH 8.0, 150 mM NaCl, 10 mM MgCl2, 200 µM UTP) for 60 s. In parallel, another 16 SSA sensors were loaded with 10 µg/mL biocytin alone, which acts as a quenching agent to block streptavidin sites on the sensor surface, and then washed with buffer W. These were used as reference sensors.
Initial screening was performed with DDU fragment set (965 fragments) at a single point concentration of 200 µM. The assay consisted of a 60 s baseline step, a 60 s association step, and a 60 s dissociation step. The assay was repeated with the streptavidin blocked control biosensors. Response levels for each compound were calculated by baseline subtraction, and the subtraction of the reference responses from the LmUSP responses. From the initial putative hits, compounds were further validated in a […] concentration series using 3-fold dilutions of each fragment ranging from 500 µM to 2.05 µM. Data were processed, and kinetic parameters were calculated, using the ForteBio software. A visual inspection of curves alongside steady state fitting was used to identify fragments of interest.

LmUSP [2] = target: T1, LmUSP; test: HPLC-based enzyme activity assay, LmUSP (UDP-Gal production); assay type: biochemical; conditions: for inhibition at 500 µM: 500 µM compound, 10% DMSO, read-out: inhibition of LmUSP activity (UDP-Gal production) compared to DMSO control; for IC50: 95% confidence intervals, concentrations 7 µM to 500 µM
Method: (§1) Compounds were tested at a concentration of 500 µM with 20 nM enzyme in an high-performance liquid chromatography (HPLC)-based assay at a final reaction volume of 100 µL. The DMSO concentration in the reaction was kept at 10%. The reaction buffer consisted of 10 mM Tris-HCl pH 8.0, 2 mM MgCl2, 10 mM NaCl, 0.005 U of inorganic pyrophosphatase (Thermo Fisher Scientific, Vilnius, Lithuania), and 1 mM Dithiothreitol (DTT) (for LmUSP and LmUGP only). Protein was incubated with the inhibitors and UTP (final concentration of 0.8 mM in reaction) for 30 min at room temperature, before the addition of the reaction buffer. […] The samples were spun down and the supernatants applied to a Dionex CarboPac™ PA10 column (Thermo Fisher Scientific, Sunnyvale, CA, USA). UDP-Gal or UDP-Glc (products) were separated from UTP (substrate), UMP, and UDP (both, UTP hydrolysis products) with a NaCl gradient elution ranging from 0 to 500 mM NaCl over 13 min at 0.6 mL/min. Absorption of the uracil moiety was detected at 260 nm. The peak area of UDP-Gal or UDP-Glc in reactions with inhibitors was compared to a control containing 10% DMSO. Protein concentrations were calculated from the measured UV-absorbance at 280 nm (Implen NanoPhotometer N60, Implen GmbH, München, Germany), and the proteins’ individual extinction coefficients were calculated using the online ProtParam tool (http://web.expasy.org/protparam/). […] Corresponding IC50 values were calculated by using nonlinear regression analysis with variable slope, in GraphPad Prism version 4.00 (GraphPad Software, San Diego, CA, USA).

hUGP = target: T2, hUGP (Homo sapiens, UniProt Q16851); test: HPLC-based enzyme activity assay, hUGP; assay type: biochemical; conditions: 10% DMSO; for inhibition of hUGP (in words): 500 µM / high compound concentration; for decrease of hUGP activity: 500 µM compound
T2 construct: made in house
T2 sequence (Q16851 1-508): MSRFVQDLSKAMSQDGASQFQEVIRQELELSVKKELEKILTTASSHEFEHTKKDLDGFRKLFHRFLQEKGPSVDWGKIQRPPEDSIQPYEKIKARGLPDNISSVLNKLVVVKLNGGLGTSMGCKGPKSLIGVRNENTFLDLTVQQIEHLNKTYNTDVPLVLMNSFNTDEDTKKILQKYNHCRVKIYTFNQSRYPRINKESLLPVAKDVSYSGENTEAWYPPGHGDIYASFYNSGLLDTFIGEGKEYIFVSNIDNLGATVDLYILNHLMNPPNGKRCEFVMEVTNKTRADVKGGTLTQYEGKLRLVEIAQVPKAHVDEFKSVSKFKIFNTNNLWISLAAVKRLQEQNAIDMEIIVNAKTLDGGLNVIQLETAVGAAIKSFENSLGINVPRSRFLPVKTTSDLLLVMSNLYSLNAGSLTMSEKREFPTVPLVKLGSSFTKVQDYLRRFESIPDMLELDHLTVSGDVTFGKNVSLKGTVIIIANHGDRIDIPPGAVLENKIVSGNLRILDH
Method: as §1

LmUGP = LmUGP (Leishmania major, UniProt Q4QDU3); test: HPLC-based enzyme activity assay, LmUGP (UDP-Glc production); assay type: biochemical; conditions: for inhibition at 500 µM: 500 µM compound, 10% DMSO; for IC50: 95% confidence intervals, concentrations 7 µM to 500 µM
Method: as §1

[3] = tested on: O=P(O)(O)O[C@H]1O[C@H](CO)[C@H](O)[C@H](O)[C@H]1O; test: purified protein, by the assay type; conditions: 0.8 mM UTP, 25 °C, pH 8.0
LmUSP [4] = target: T1, LmUSP; conditions: read-out: Km value of UTP; cited from earlier work
[5] = BLI 7-point concentration series 2 µM to 500 µM, steady state fitting, read-out: Estimated KD

Compound: O=C(O)Cc1cccc(C(F)(F)F)c1 [DDD00095351]
- Kd (LmUSP [1]; [5]): 83.3 µM
- Primary Binding Response (LmUSP [1]): 0.127

Compound: CC(C(=O)O)c1cccc(F)c1 (stereo not shown) [DDD01305586]
- Kd (LmUSP [1]; [5]): 60.1 µM
- Primary Binding Response (LmUSP [1]): 0.1541

Compound: Cn1c(=O)n(CCN)c(=O)c2ccccc21 [DDD00808259]
- Kd (LmUSP [1]; [5]): 67.6 µM
- Primary Binding Response (LmUSP [1]): 0.1728

Compound: O=C(Cn1c(=O)[nH]c2ccccc2c1=O)Nc1ccc2[nH]ccc2c1 [#4]
- inhibition at 500 µM (LmUSP [2]): ≥ 80%
- IC50 (LmUSP [2]): 135 to 175 µM
- inhibition of hUGP (in words) (hUGP): little effect
- decrease of hUGP activity (hUGP): less than 20%
- inhibition at 500 µM (LmUGP): > 95%
- IC50 (LmUGP): 126 to 134 µM

Compound: O=C(Cn1cnc2ccccc2c1=O)NCCc1c[nH]c2ccc(Cl)cc12 [#8D]
- IC50 (LmUSP [2]): 170 to 195 µM
- inhibition of hUGP (in words) (hUGP): clear inhibition
- IC50 (LmUGP): 193 to 242 µM

Compound: LmUSP wild type (Leishmania major)
- Km ([3]; other: wild-type LmUSP): 529.20 ± 24.60 µM
- Vmax ([3]; other: wild-type LmUSP): 184 µmol/min/mg
- kcat ([3]; other: wild-type LmUSP): 216 s⁻¹
- kcat/Km ([3]; other: wild-type LmUSP): 409000 M⁻¹ s⁻¹

Compound: LmUSP V330W mutant (Leishmania major; V330W)
- Km ([3]; other: LmUSP V330W): 1255.00 ± 145.66 µM
- Vmax ([3]; other: LmUSP V330W): 272 µmol/min/mg
- kcat ([3]; other: LmUSP V330W): 319 s⁻¹
- kcat/Km ([3]; other: LmUSP V330W): 255000 M⁻¹ s⁻¹

Compound: LmUSP V330W/F383R mutant (Leishmania major; F383R/V330W)
- Km ([3]; other: LmUSP V330W/F383R): 276.45 ± 51.26 µM
- Vmax ([3]; other: LmUSP V330W/F383R): 21.8 µmol/min/mg
- kcat ([3]; other: LmUSP V330W/F383R): 25.6 s⁻¹
- kcat/Km ([3]; other: LmUSP V330W/F383R): 93000 M⁻¹ s⁻¹

Compound: LmUSP V199W mutant (Leishmania major; V199W)
- Km ([3]; other: LmUSP V199W): 1007.25 ± 18.03 µM
- Vmax ([3]; other: LmUSP V199W): 76.8 µmol/min/mg
- kcat ([3]; other: LmUSP V199W): 90.2 s⁻¹
- kcat/Km ([3]; other: LmUSP V199W): 89000 M⁻¹ s⁻¹

Compound: COCCNC(=O)n1c(=O)oc2ccccc21 [DDD00102262]
- Kd (LmUSP [1]; [5]): 72.6 µM
- Primary Binding Response (LmUSP [1]): 0.077

Compound: LmUSP F383R mutant (Leishmania major; F383R)
- Km ([3]; other: LmUSP F383R): 364.00 ± 22.20 µM
- Vmax ([3]; other: LmUSP F383R): 14.8 µmol/min/mg
- kcat ([3]; other: LmUSP F383R): 17.3 s⁻¹
- kcat/Km ([3]; other: LmUSP F383R): 47000 M⁻¹ s⁻¹

Compound: CC(Cc1c[nH]c2ccccc12)NC(=O)Cn1c(=O)[nH]c2ccccc2c1=O (stereo not shown) [#8A]
- IC50 (LmUSP [2]): > 250 µM
- IC50 (LmUGP): > 250 µM

Compound: O=C(Cn1cnc2ccccc2c1=O)NCCc1c[nH]c2ccc(F)cc12 [#8E]
- IC50 (LmUSP [2]): 40.4 to 46.3 µM
- inhibition of hUGP (in words) (hUGP): clear inhibition
- IC50 (LmUGP): 38 to 46.8 µM

Compound: O=C(Cn1c(=O)[nH]c2ccccc2c1=O)NCCc1c[nH]c2ccc(Cl)cc12 [#8B]
- IC50 (LmUSP [2]): 47.2 to 66.4 µM
- inhibition of hUGP (in words) (hUGP): clear inhibition
- IC50 (LmUGP): 55.1 to 69.1 µM

Compound: COc1ccc2[nH]cc(CCNC(=O)Cn3c(=O)[nH]c4ccccc4c3=O)c2c1 [#8C]
- IC50 (LmUSP [2]): > 250 µM
- IC50 (LmUGP): > 250 µM

Compound: O=C(Cn1c(=O)[nH]c2ccccc2c1=O)NCCc1c[nH]c2ccccc12 [#8]
- inhibition at 500 µM (LmUSP [2]): ≥ 80%
- IC50 (LmUSP [2]): 78.1 to 107 µM
- inhibition of hUGP (in words) (hUGP): little effect
- decrease of hUGP activity (hUGP): less than 20%
- inhibition at 500 µM (LmUGP): > 95%
- IC50 (LmUGP): 120 to 151 µM

Compound: O=c1ccn([C@@H]2O[C@H](COP(=O)(O)OP(=O)(O)OP(=O)(O)O)[C@@H](O)[C@H]2O)c(=O)[nH]1 [UTP, uridine triphosphate, reference compound]
- Km (LmUSP [4]): 100 µM
- Kd (LmUSP [1]): 89 µM
